According to publication PMC5778071, “Development of matrix metalloproteinase-targeted probes for lung inflammation detection with positron emission tomography” (Scientific Reports, 2018):
pIC50: −log10 of the molar value. Values joined by “and” are separate entries in the source; they are usually repeats but may differ in a detail not shown here. Identical values can stand only once. Values belong to the compound of their own block, whether it stands above or below them.

Experiments:
MMP-12 = test system: MMP-12; design: method as in PMID 25438884; conditions: fluorogenic inhibition assay; cited from earlier work
MMP-9 = test system: MMP-9; design: method as in PMID 25438884; conditions: fluorogenic inhibition assay; cited from earlier work
[1] = In vivo biodistribution study in Air and CS (COPD model) mice; design: species or system BALB/c mice; conditions: for Tissue radioactivity, Blood / Tissue radioactivity, Bone / Tissue radioactivity, Heart / Tissue radioactivity, Intestine / Tissue radioactivity, Kidney / Tissue radioactivity, Liver / Tissue radioactivity, Lung / Tissue radioactivity, Muscle / Tissue radioactivity, Pancreas / Tissue radioactivity, Spleen / Tissue radioactivity, Stomach: i.v.
Protocol: The animals were randomly divided into two groups, control air-exposed (Air, n = 18) and cigarette smoke exposed (CS, n = 18) groups. The mice in the CS group were exposed to cigarette smoke for 10 min inside an acrylic box twice a day, 4–5 times a week, for 4 months using 1 cigarette (Peace, Japan Tobacco Inc., Tokyo, Japan) for every exposure following a previous report with slight modifications. The mice in the Air group were identically exposed to air without CS in a similar box. After the CS treatment, the animals were kept under normal warm and clean environmental conditions to allow for recovery and then housed as described above.
Animals from each study group were randomly divided into 3 groups (n = 3 each) for each time point studied. Mice that were intravenously administered ^18F-IPFP (185 kBq/100 μl saline containing 0.1% tween 80) were sacrificed by cervical dislocation at 20, 45, and 90 min, and 5, 45, and 90 min after administration for the Air and CS groups, respectively. Blood was immediately collected from the heart cavity. Tissues were excised, weighed, and counted for radioactivity with an NaI well-type scintillation counter (1470 Wizard; PerkinElmer, Kanagawa, Japan).

[2] = In vivo PET imaging of lung region; design: species or system BALB/c mice; conditions: 50–60 min after injection
Protocol: PET data were acquired in list mode using a microPET Focus120 apparatus (Siemens), with a spatial resolution of 1.2 mm at the center of the field of view[24]. Animals (n = 2 per group) were placed in a prone position under 1–2% isoflurane anesthesia on a heating pad to maintain body temperature at 36–37 °C during the PET experiments. A transmission […] scan using an external ^68Ge source was acquired before the PET scan for attenuation correction. At the start of the PET scan, intravenous administration of ^18F-IPFP (4.7–8.1 MBq/100 μl saline containing 0.1% tween 80) was initiated for 15 sec followed by a 50–100 μl saline flush for 15 sec. The scan duration was 60 min. Following the PET scan, mice were immediately euthanized with an anesthesia overdose, followed by extraction of the lungs and heart. Extracted organs were placed on the PET bed and scanned for another 10 min. Thereafter, the lungs were frozen for ex vivo autoradiography analysis. Emission images were reconstructed using Fourier rebinning[25] and a maximum likelihood expectation maximization algorithm with a 128 × 128 × 95 matrix size, and a 0.43 × 0.43 × 0.80 mm^3 voxel size. The uptake of the tracer in the regions of interest was converted to the standardized uptake values (SUVs).

[3] = Ex vivo autoradiography of lung sections; format: in vivo, BALB/c mice; conditions: after PET scan; for Radioactivity accumulation in lung sections (autoradiography): 20 μm sections
Protocol: Following the PET experiments, the frozen lungs were cut into 20 μm thick sections with a cryomicrotome (Cryotome FSE; ThermoFisher Scientific, Tokyo, Japan). Lung sections at intervals of 100 μm (n = 2 each, 9 positions) were exposed to imaging plates (BAS-SR; GE Healthcare Japan, Tokyo, Japan) for 3 h. To quantify the signals, various concentrations of the administrated ^18F-IPFP dilutions were also plotted and exposed to imaging plates. Autoradiograms were obtained with a Typhoon FLA 7000 scanner, (GE Healthcare Japan), and the resulting images were analyzed by ImageQuant TL (GE Healthcare Japan). Radioactivities per area were determined by image analysis of the resulting autoradiograms and expressed as percent injected dose (%ID) per section calculated using the quantitation curve obtained by the ^18F-IPFP dilutions.

[4] = Air group, 20 min after injection
[5] = Air group, 45 min after injection
[6] = Air group, 90 min after injection
[7] = CS group, 5 min after injection
[8] = CS group, 45 min after injection
[9] = CS group, 90 min after injection

Compound: CC(C)C[C@H](CC(=O)NO)C(=O)N[C@@H](Cc1ccccc1)C(=O)N[C@@H](CCCCNC(=O)c1ccc(F)cc1)C(N)=O [^18F-FB-ML5]
pIC50 (MMP-12): 6.86
pIC50 (MMP-9): 7.50

Radioactivity accumulation in the lungs, CS group compared with Air group ([1]; 90 min after administration): > 4 fold and 4 fold
Tissue radioactivity, Blood [1, 4]: 0.5 ± 0.1 %ID/g
Tissue radioactivity, Bone [1, 4]: 0.4 ± 0.0 %ID/g
Tissue radioactivity, Heart [1, 4]: 0.5 ± 0.1 %ID/g
Tissue radioactivity, Intestine [1, 4]: 10.7 ± 2.2 %ID/g
Tissue radioactivity, Kidney [1, 4]: 37.6 ± 6.4 %ID/g
Tissue radioactivity, Liver [1, 4]: 22.6 ± 0.7 %ID/g
Tissue radioactivity, Lung [1, 4]: 5.3 ± 0.6 %ID/g
Tissue radioactivity, Muscle [1, 4]: 0.3 ± 0.1 %ID/g
Tissue radioactivity, Pancreas [1, 4]: 5.4 ± 0.7 %ID/g
Tissue radioactivity, Spleen [1, 4]: 0.9 ± 0.1 %ID/g
Tissue radioactivity, Stomach [1, 4]: 2.8 ± 2.1 % injected dose
Tissue radioactivity, Blood [1, 5]: 0.6 ± 0.0 %ID/g
Tissue radioactivity, Bone [1, 5]: 0.5 ± 0.1 %ID/g
Tissue radioactivity, Heart [1, 5]: 0.5 ± 0.0 %ID/g
Tissue radioactivity, Intestine [1, 5]: 16.9 ± 3.0 %ID/g
Tissue radioactivity, Kidney [1, 5]: 38.8 ± 4.2 %ID/g
Tissue radioactivity, Liver [1, 5]: 15.2 ± 1.6 %ID/g
Tissue radioactivity, Lung [1, 5]: 2.4 ± 0.4 %ID/g
Tissue radioactivity, Muscle [1, 5]: 0.3 ± 0.2 %ID/g
Tissue radioactivity, Pancreas [1, 5]: 4.5 ± 0.8 %ID/g
Tissue radioactivity, Spleen [1, 5]: 0.8 ± 0.1 %ID/g
Tissue radioactivity, Stomach [1, 5]: 1.5 ± 1.0 % injected dose
Tissue radioactivity, Blood [1, 6]: 0.7 ± 0.1 %ID/g
Tissue radioactivity, Bone [1, 6]: 0.7 ± 0.2 %ID/g
Tissue radioactivity, Heart [1, 6]: 0.5 ± 0.1 %ID/g
Tissue radioactivity, Intestine [1, 6]: 18.4 ± 2.1 %ID/g
Tissue radioactivity, Kidney [1, 6]: 34.6 ± 3.3 %ID/g
Tissue radioactivity, Liver [1, 6]: 11.2 ± 1.1 %ID/g
Tissue radioactivity, Lung [1, 6]: 1.3 ± 0.1 %ID/g
Tissue radioactivity, Muscle [1, 6]: 0.4 ± 0.1 %ID/g
Tissue radioactivity, Pancreas [1, 6]: 3.9 ± 0.6 %ID/g
Tissue radioactivity, Spleen [1, 6]: 0.8 ± 0.2 %ID/g
Tissue radioactivity, Stomach [1, 6]: 0.5 ± 0.2 % injected dose
Radioactivity accumulation in the lungs relative to heart, muscle and blood ([1]; COPD mice, 90 min after administration): 10 fold
Tissue radioactivity, Blood [1, 7]: 0.8 ± 0.1 %ID/g
Tissue radioactivity, Bone [1, 7]: 1.0 ± 0.3 %ID/g
Tissue radioactivity, Heart [1, 7]: 0.9 ± 0.3 %ID/g
Tissue radioactivity, Intestine [1, 7]: 6.0 ± 0.6 %ID/g
Tissue radioactivity, Kidney [1, 7]: 34.1 ± 3.6 %ID/g
Tissue radioactivity, Liver [1, 7]: 30.8 ± 4.6 %ID/g
Tissue radioactivity, Lung [1, 7]: 9.4 ± 1.9 %ID/g
Tissue radioactivity, Muscle [1, 7]: 0.6 ± 0.1 %ID/g
Tissue radioactivity, Pancreas [1, 7]: 6.2 ± 0.3 %ID/g
Tissue radioactivity, Spleen [1, 7]: 2.5 ± 0.4 %ID/g
Tissue radioactivity, Stomach [1, 7]: 1.0 ± 0.4 % injected dose
Radioactivity accumulation in the lungs relative to surrounding tissues (heart, blood, muscle) [1, 8]: > 10 fold
Tissue radioactivity, Blood [1, 8]: 0.5 ± 0.1 %ID/g
Tissue radioactivity, Bone [1, 8]: 0.6 ± 0.1 %ID/g
Tissue radioactivity, Heart [1, 8]: 0.5 ± 0.1 %ID/g
Tissue radioactivity, Intestine [1, 8]: 13.1 ± 0.3 %ID/g
Tissue radioactivity, Kidney [1, 8]: 31.7 ± 2.2 %ID/g
Tissue radioactivity, Liver [1, 8]: 17.4 ± 4.1 %ID/g
Tissue radioactivity, Lung [1, 8]: 5.6 ± 0.5 %ID/g
Tissue radioactivity, Muscle [1, 8]: 0.3 ± 0.1 %ID/g
Tissue radioactivity, Pancreas [1, 8]: 4.8 ± 0.6 %ID/g
Tissue radioactivity, Spleen [1, 8]: 1.2 ± 0.2 %ID/g
Tissue radioactivity, Stomach [1, 8]: 2.2 ± 0.2 % injected dose
Tissue radioactivity, Blood [1, 9]: 0.6 ± 0.1 %ID/g
Tissue radioactivity, Bone [1, 9]: 0.8 ± 0.2 %ID/g
Tissue radioactivity, Heart [1, 9]: 0.6 ± 0.1 %ID/g
Tissue radioactivity, Intestine [1, 9]: 15.7 ± 0.9 %ID/g
Tissue radioactivity, Kidney [1, 9]: 25.4 ± 5.2 %ID/g
Tissue radioactivity, Liver [1, 9]: 12.0 ± 1.0 %ID/g
Tissue radioactivity, Lung [1, 9]: 6.3 ± 0.3 %ID/g
Tissue radioactivity, Muscle [1, 9]: 0.3 ± 0.1 %ID/g
Tissue radioactivity, Pancreas [1, 9]: 3.9 ± 0.4 %ID/g
Tissue radioactivity, Spleen [1, 9]: 1.3 ± 0.2 %ID/g
Tissue radioactivity, Stomach [1, 9]: 1.4 ± 0.5 % injected dose
accumulation ratio of lung to liver ([1]; mouse, in vivo): > 0.5
Radioactivity uptake in the bone ([1]; over the time window, suggests absence of defluorination): low
SUV in the lung regions (PET) ([2]; Air group): 0.17
SUV in the lung regions (PET) ([2]; CS group): 0.22
Radioactivity accumulation in lung sections (autoradiography) ([3]; Air group): 16.2 ± 2.0 × 10^−4 %ID/section
Radioactivity accumulation in lung sections (autoradiography) ([3]; CS group): 30.0 ± 3.0 × 10^−4 %ID/section
Radioactivity accumulation in lung sections, CS group vs Air group (autoradiography) [3]: 2 fold
Compound: CC(C)C[C@H](CC(=O)NO)C(=O)N[C@@H](Cc1ccc(I)cc1)C(=O)N[C@@H](CCCCNC(=O)C(C)[18F])C(N)=O (stereo partly drawn) [^18F-IPFP]
